In ChEMBL document CHEMBL6078725, “Discovery of novel xanthohumol C derivatives regulating XRCC2 transcription and expression for the treatment of colorectal cancer” (Bioorg Med Chem, 2025):
pIC50: −log10 of the molar value.

What was measured:
[1] = tested on: RKO; test: Antiproliferative activity against human RKO cells incubated for 48 hrs by MTS assay; type: functional, cell-based
[2] = tested on: HCT-116; test: Antiproliferative activity against human HCT-116 cells incubated for 48 hrs by MTS assay; type: functional, cell-based; settings: HCT-116, 48 h

| pIC50 [2] | Structure (SMILES) | pIC50 [1] |
| --- | --- | --- |
| 4.10 | COc1cc2c(c(O)c1C(=O)/C=C/c1ccc(C(C)C)cc1)C=CC(C)(C)O2 | 4.16 |
| 4.58 | COc1cc2c(c(O)c1C(=O)/C=C/c1ccc(C(F)(F)F)cc1)C=CC(C)(C)O2 | 4.60 |
| 4.49 | COc1cc(O)ccc1/C=C/C(=O)c1c(OC)cc2c(c1O)C=CC(C)(C)O2 | 4.55 |
| 4.64 | COc1cc2c(c(OC)c1C(=O)/C=C/c1ccccc1)C=CC(C)(C)O2 | 4.69 |
| 4.64 | COc1cccc(/C=C/C(=O)c2c(OC)cc3c(c2O)C=CC(C)(C)O3)c1OC | 4.86 |
| < 3.70 | COc1cc2c(c(O)c1C(=O)/C=C/c1ccc(N3CCCC3)cc1)C=CC(C)(C)O2 | < 3.70 |
| 3.79 | COc1cc2c(c(O)c1C(=O)/C=C/c1ccc([N+](=O)[O-])cc1)C=CC(C)(C)O2 | 3.88 |
| 3.70 | COc1cc2c(c(O)c1C(=O)/C=C/c1ccc(N3CCCCC3)cc1)C=CC(C)(C)O2 | < 3.70 |
| 3.72 | COc1cc2c(c(O)c1C(=O)/C=C/c1cccc(OCc3ccccc3)c1)C=CC(C)(C)O2 | 3.83 |
| 4.33 | COc1cc2c(c(OC)c1C(=O)/C=C/c1ccc(O)cc1)C=CC(C)(C)O2 | 4.59 |
| 4.35 | COc1ccc(/C=C/C(=O)c2c(OC)cc3c(c2O)C=CC(C)(C)O3)cc1Br | 4.45 |
| 4.59 | COc1cc(/C=C/C(=O)c2c(OC)cc3c(c2O)C=CC(C)(C)O3)cc(OC)c1OC | 4.67 |
| 4.58 | COc1cc2c(c(O)c1C(=O)/C=C/c1ccc(Cl)cc1)C=CC(C)(C)O2 | 4.58 |
| 4.60 | COc1ccc(/C=C/C(=O)c2c(OC)cc3c(c2O)C=CC(C)(C)O3)cc1O | 4.74 |
| < 3.70 | CCN(CC)c1ccc(/C=C/C(=O)c2c(OC)cc3c(c2O)C=CC(C)(C)O3)cc1 | < 3.70 |
| 4.40 | COc1cc(/C=C/C(=O)c2c(OC)cc3c(c2O)C=CC(C)(C)O3)cc(OC)c1O | 4.59 |
| < 3.70 | COc1cc2c(c(O)c1C(=O)/C=C/c1ccc(N(C)C)cc1)C=CC(C)(C)O2 | 3.93 |
| 4.61 | COc1cc(/C=C/C(=O)c2c(OC)cc3c(c2O)C=CC(C)(C)O3)ccc1O | 4.75 |
| 4.58 | COc1ccc(/C=C/C(=O)c2c(OC)cc3c(c2O)C=CC(C)(C)O3)c(OC)c1OC | 4.64 |
